Source: patent publication US7186565B2, “Sampling and toxicity monitoring device and method” (priority 2001, dated 2007)
Read-outs that look alike come from different tables or passages of the source.

Experiments:
[1] = tested on: 7-ethoxyresorufin-o-deethylase (EROD) activity in a rainbow trout liver cell line (RTL-W1); test: Induction of EROD activity in RTL-W1 cells; format: cell-based; details: Oncorhynchus mykiss
Description: For toxicity tests, reporter cells or molecules are preferably added to chambers in an appropriate culture medium. An appropriate liquid culture medium is one that will maintain reporter cell vitality (or reporter molecule integrity) and support expression of a chosen endpoint in the toxicological test. For example for the experiment depicted in FIG. 8, liver cells from rainbow trout (RTL-W1 cells) were added in Leibovitz' L-15 medium that contained 5% fetal bovine serum as a supplement (Bols et al., 1999). The reporters are left to desorb or interact with the chemicals at the sampler surface for a predetermined time. […] After a predetermined exposure time, the reporter cells are evaluated for the expression of toxicity. […] Other examples of toxicological endpoints would be the disruption of metabolic activity or the loss of cell membrane integrity in cultured cells, which can be measured using the fluorescent indicator dyes alamar Blue and CFDA-AM (Schirmer et al., 2000a/b), or the modulation of light emission in luminescent bacteria (Bitton and Koopman, 1992). Although not essential to the method, the arrangement of chambers in a multiwell plate format and the use of fluorescent indicator dyes or light emission is advantageous because of recent developments in automated fluorescence/luminescence multiwell plate readers. Plates with […] can be analyzed in seconds. […]

[2] = Description: For these experiments fluoranthene was dissolved in the aqueous medium, L-15/ex, to yield 297 nM (60 ng/ml) of fluoranthene. The fluoranthene solution was added once to empty wells of tissue culture plates, and 10 min, 2, 4, and 24 h later, the medium was removed and culture wells extracted with methanol in order to solubilize fluoranthene that had adsorbed to the culture surface. The concentration of fluoranthene in the methanol extracts was subsequently determined by high performance liquid chromatography (HPLC) and expressed as a percentage of the initial concentration, 297 nM.

SMILES	EC50 ([1]; BkF added in dissolved form to wells after cell attachment (conventional method), RTL-W1 cells, read-out: EC50 of EROD induction, dissolved BkF) [nM]	EC50 ([1]; BkF adsorbed to polystyrene culture wells prior to cell attachment, RTL-W1 cells attached 24 h before EROD measurement, read-out: EC50 of EROD induction, sorbed BkF) [nM]	binding of fluoranthene by polystyrene of tissue culture plates ([2]; 297 nM in L-15/ex, 10 min, 2, 4, 24 h)	time of exposure until sorption equilibrium is reached ([2]; single dose 297 nM (60 ng/ml) in L-15/ex in empty wells, methanol extract, HPLC)
c1ccc2cc3c(cc2c1)-c1cccc2cccc-3c12 [BkF, benzo[k]fluoranthene]	8.6	10.4	–	–
c1ccc2c(c1)-c1cccc3cccc-2c13 [fluoranthene]	–	–	high affinity	less than 24 h
